Data on nine substances can be found in patent US10898561B2, “Peptides and combination of peptides for use in immunotherapy against pancreatic cancer and other cancers” (IMMATICS BIOTECHNOLOGIES GMBH, priority 2015, dated 2021).

The target of one assay is HLA-A*02:01 (Homo sapiens, UniProt P04439, D140Y/D185E/D98H/E176V/E277Q/G131W/G231S/I119V/I121R/I166T/I218V/L300P/L318F/N151K/N90K/P208A/P217A/Q86G/Q94H/R138H/R169H/T345S). Description: MHC binding assay: UV-ligand exchange with beta2m ELISA. The note with it: MHC class I binding score, yield of UV-ligand exchange. From the text:
Candidate peptides for T cell based therapies according to the present invention were further tested for their MHC binding capacity (affinity). The individual peptide-MHC complexes were produced by UV-ligand exchange, where a UV-sensitive peptide is cleaved upon UV-irradiation, and exchanged with the peptide of interest as analyzed. Only peptide candidates that can effectively bind and stabilize the peptide-receptive MHC molecules prevent dissociation of the MHC complexes. To determine the yield of the exchange reaction, an ELISA was performed based on the detection of the light chain (β2m) of stabilized MHC complexes. The assay was performed as generally described in Rodenko et al. (Rodenko et al., 2006).
96 well MAXISorp plates (NUNC) were coated over night with 2 ug/ml streptavidin in PBS at room temperature, washed 4× and blocked for 1 h at 37° C. in 2% BSA containing blocking buffer. Refolded HLA-A*02:01/MLA-001 monomers served as standards, covering the range of 15-500 ng/ml. Peptide-MHC monomers of the UV-exchange reaction were diluted 100 fold in blocking buffer. Samples were incubated for 1 h at 37° C., washed four times, incubated with 2 ug/ml HRP conjugated anti-β2m for 1 h at 37° C., washed again and detected with TMB solution that is stopped with […]. Absorption was measured at 450 nm. Candidate peptides that show a high exchange yield (preferably higher than 50%, most preferred higher than 75%) are generally preferred for a generation and production of antibodies or fragments thereof, and/or T cell receptors or fragments thereof, as they show sufficient avidity to the MHC molecules and prevent dissociation of the MHC complexes.

A further assay deals with CD8+ T cells. Briefly: In vitro T-cell priming assay with aAPCs loaded with peptide/MHC complexes and anti-CD28 antibody, multimer readout. In kind it is cell-based, human. The note with it: in vitro immunogenicity, healthy HLA-A*02 donors; for donors: positive donors; for wells: positive wells. From the text:
In order to obtain information regarding the immunogenicity of the TUMAPs of the present invention, the inventors performed investigations using an in vitro T-cell priming assay based on repeated stimulations of CD8+ T cells with artificial antigen presenting cells (aAPCs) loaded with peptide/MHC complexes and anti-CD28 antibody.
In order to perform in vitro stimulations by artificial antigen presenting cells loaded with peptide-MHC complex (pMHC) and anti-CD28 antibody, the inventors first isolated CD8+ T cells from fresh HLA-A*02 leukapheresis products via positive selection using CD8 microbeads (Miltenyi Biotec, Bergisch-Gladbach, Germany) of healthy donors obtained from the University clinics Mannheim, Germany, after informed consent.
PBMCs and isolated CD8+ lymphocytes were incubated in T-cell medium (TCM) until use consisting of RPMI-Glutamax (Invitrogen, Karlsruhe, Germany) supplemented with 10% heat inactivated human AB serum (PAN-Biotech, Aidenbach, Germany), 100 U/ml Penicillin/100 μg/ml Streptomycin (Cambrex, Cologne, Germany), 1 mM sodium pyruvate (CC Pro, Oberdorla, Germany), 20 μg/ml Gentamycin (Cambrex). 2.5 ng/ml IL-7 (PromoCell, Heidelberg, Germany) and 10 U/ml IL-2 (Novartis Pharma, Nürnberg, Germany) were also added to the TCM at this step.
Generation of pMHC/anti-CD28 coated beads, T-cell stimulations and readout was performed in a highly defined in vitro system using four different pMHC molecules per stimulation condition and 8 different pMHC molecules per readout condition.
The purified co-stimulatory mouse IgG2a anti human CD28 Ab 9.3 (Jung et al., 1987) was chemically biotinylated using Sulfo-N-hydroxysuccinimidobiotin as recommended by the manufacturer (Perbio, Bonn, Germany). Beads used were 5.6 μm diameter streptavidin coated polystyrene particles (Bangs Laboratories, Ill., USA).
800.000 beads/200 μl were coated in 96-well plates in the presence of 4×12.5 ng different biotin-pMHC, washed and 600 ng biotin anti-CD28 were added subsequently in a volume of 200 μl. Stimulations were initiated in 96-well plates by co-incubating 1×10^6 CD8+ T cells with 2×10^6 washed coated beads in 200 μl TCM supplemented with 5 ng/ml IL-12 (PromoCell) for 3 days at 37° C. Half of the medium was then exchanged by fresh TCM supplemented with 80 U/ml IL-2 and incubating was continued for 4 days at 37° C. This stimulation cycle was performed for a total of three times. For the pMHC multimer readout using 8 different pMHC molecules per condition, a two-dimensional combinatorial coding approach was used as previously described (Andersen et al., 2012) with minor modifications encompassing coupling to 5 different fluorochromes. Finally, multimeric analyses were performed by staining the cells with Live/dead near IR dye (Invitrogen, Karlsruhe, Germany), CD8-FITC antibody clone SK1 (BD, Heidelberg, Germany) and fluorescent pMHC multimers. For analysis, a BD LSRII SORP cytometer equipped with appropriate lasers and filters was used. Peptide specific cells were calculated as percentage of total CD8+ cells. Evaluation of multimeric analysis was done using the FlowJo software (Tree Star, Oregon, USA). In vitro priming of specific multimer+CD8+ lymphocytes was detected by comparing to negative control stimulations.

Turning to “3 (ALLTFMEQV; listed as Homo sapiens) [compound 3]”, in the assay with HLA-A*02:01, the Peptide exchange result is “+++ (50%-75% = +++)”. For the same substance, the “Wells positive [%]” value with CD8+ T cells is recorded as “++ (20%-49% = ++)”.

For “20 (RLAGDGVGAV; listed as Homo sapiens) [compound 20]”, the Peptide exchange entry with HLA-A*02:01 is listed as “++ (20%-49% = ++)”. Also, in the assay with CD8+ T cells, the “Wells positive [%]” value is “++++ (>=70% = ++++)”.

With “21 (HLMDQPLSV; listed as Homo sapiens) [compound 21]”, the Peptide exchange result with HLA-A*02:01 is given as “++ (20%-49% = ++)”. Moreover, the “Wells positive [%]” value with CD8+ T cells was “+ (<20% = +)”.

Take “23 (SLSAFTLFL; listed as Homo sapiens) [compound 23]”: the Peptide exchange result in the assay with HLA-A*02:01 is given as “++ (20%-49% = ++)”. Moreover, the “Wells positive [%]” value in the assay on CD8+ T cells is given as “++ (20%-49% = ++)”.

As for “34 (MLMPVHFLL; listed as Homo sapiens) [compound 34]”, the Peptide exchange result in the assay with HLA-A*02:01 is listed as “++++ (>=75% = ++++)”. Moreover, the “Wells positive [%]” value in the assay on CD8+ T cells is reported as “+ (<20% = +)”.

“37 (GLLKKINSV; listed as Homo sapiens) [compound 37]”: the Peptide exchange result with HLA-A*02:01 was “++ (20%-49% = ++)”. In addition, the “Wells positive [%]” value with CD8+ T cells is recorded as “+ (<20% = +)”.

As for “50 (ALAAILTRL; listed as Homo sapiens) [compound 50]”, the Peptide exchange entry with HLA-A*02:01 is on record as “+++ (50%-75% = +++)”. In addition, the “Wells positive [%]” value with CD8+ T cells is given as “+++ (50%-69% = +++)”.

For “69 (VMAPFTMTI; listed as Homo sapiens) [compound 69]”, in the assay on CD8+ T cells, the donors entry was “++++ (>=70% = ++++)” and the wells entry is on record as “++ (20%-49% = ++)”.

As for “87 (LLLGSPAAA; listed as Homo sapiens) [compound 87]”, in the assay on CD8+ T cells, the donors result is “+++ (50%-69% = +++)” and the wells entry is “+ (<20% = +)”.
